Assay [1] concerns the target T1, Tyrosine-protein phosphatase non-receptor type 11 (Homo sapiens) (UniProt Q06124).
T1 sequence (whole entry): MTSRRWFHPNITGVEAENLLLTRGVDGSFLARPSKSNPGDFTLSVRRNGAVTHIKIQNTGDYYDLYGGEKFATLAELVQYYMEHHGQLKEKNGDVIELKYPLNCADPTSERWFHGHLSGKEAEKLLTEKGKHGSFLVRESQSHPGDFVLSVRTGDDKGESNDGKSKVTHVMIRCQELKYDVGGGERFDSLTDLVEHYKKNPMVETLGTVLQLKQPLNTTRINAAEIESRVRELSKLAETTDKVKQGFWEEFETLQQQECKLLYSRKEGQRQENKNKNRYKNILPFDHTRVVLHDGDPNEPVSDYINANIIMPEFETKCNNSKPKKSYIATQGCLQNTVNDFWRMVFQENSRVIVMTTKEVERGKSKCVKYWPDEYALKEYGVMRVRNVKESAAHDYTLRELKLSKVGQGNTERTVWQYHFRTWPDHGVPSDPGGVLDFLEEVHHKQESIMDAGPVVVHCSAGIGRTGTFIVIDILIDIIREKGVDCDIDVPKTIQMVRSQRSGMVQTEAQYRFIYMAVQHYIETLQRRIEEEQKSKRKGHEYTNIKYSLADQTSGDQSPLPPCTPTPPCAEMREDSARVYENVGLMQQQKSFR
The assay can be described thus: Inhibition of SHP2 (unknown origin) using DiFMUP as substrate at 100 uM incubated for 30 mins followed by substrate addition at pH 6.5 by standard phosphatase assay based fluorescence analysis.

In assay [2] the target is T2, Receptor-type tyrosine-protein phosphatase epsilon (Homo sapiens, UniProt P23469). The assay can be described thus: Inhibition of PTPep (unknown origin) using DiFMUP as substrate at 100 uM incubated for 30 mins followed by substrate addition at pH 6.5 by standard phosphatase assay based fluorescence analysis.
Assay [3] has as its target T3, Receptor-type tyrosine-protein phosphatase mu (Homo sapiens, UniProt P28827). As to the kind of experiment: Inhibition of PTPmu (unknown origin) using DiFMUP as substrate at 100 uM incubated for 30 mins followed by substrate addition at pH 6.5 by standard phosphatase assay based fluorescence analysis.
The target of assay [4] is T4, Receptor-type tyrosine-protein phosphatase C (Homo sapiens) (UniProt P08575).
T4 sequence (whole entry): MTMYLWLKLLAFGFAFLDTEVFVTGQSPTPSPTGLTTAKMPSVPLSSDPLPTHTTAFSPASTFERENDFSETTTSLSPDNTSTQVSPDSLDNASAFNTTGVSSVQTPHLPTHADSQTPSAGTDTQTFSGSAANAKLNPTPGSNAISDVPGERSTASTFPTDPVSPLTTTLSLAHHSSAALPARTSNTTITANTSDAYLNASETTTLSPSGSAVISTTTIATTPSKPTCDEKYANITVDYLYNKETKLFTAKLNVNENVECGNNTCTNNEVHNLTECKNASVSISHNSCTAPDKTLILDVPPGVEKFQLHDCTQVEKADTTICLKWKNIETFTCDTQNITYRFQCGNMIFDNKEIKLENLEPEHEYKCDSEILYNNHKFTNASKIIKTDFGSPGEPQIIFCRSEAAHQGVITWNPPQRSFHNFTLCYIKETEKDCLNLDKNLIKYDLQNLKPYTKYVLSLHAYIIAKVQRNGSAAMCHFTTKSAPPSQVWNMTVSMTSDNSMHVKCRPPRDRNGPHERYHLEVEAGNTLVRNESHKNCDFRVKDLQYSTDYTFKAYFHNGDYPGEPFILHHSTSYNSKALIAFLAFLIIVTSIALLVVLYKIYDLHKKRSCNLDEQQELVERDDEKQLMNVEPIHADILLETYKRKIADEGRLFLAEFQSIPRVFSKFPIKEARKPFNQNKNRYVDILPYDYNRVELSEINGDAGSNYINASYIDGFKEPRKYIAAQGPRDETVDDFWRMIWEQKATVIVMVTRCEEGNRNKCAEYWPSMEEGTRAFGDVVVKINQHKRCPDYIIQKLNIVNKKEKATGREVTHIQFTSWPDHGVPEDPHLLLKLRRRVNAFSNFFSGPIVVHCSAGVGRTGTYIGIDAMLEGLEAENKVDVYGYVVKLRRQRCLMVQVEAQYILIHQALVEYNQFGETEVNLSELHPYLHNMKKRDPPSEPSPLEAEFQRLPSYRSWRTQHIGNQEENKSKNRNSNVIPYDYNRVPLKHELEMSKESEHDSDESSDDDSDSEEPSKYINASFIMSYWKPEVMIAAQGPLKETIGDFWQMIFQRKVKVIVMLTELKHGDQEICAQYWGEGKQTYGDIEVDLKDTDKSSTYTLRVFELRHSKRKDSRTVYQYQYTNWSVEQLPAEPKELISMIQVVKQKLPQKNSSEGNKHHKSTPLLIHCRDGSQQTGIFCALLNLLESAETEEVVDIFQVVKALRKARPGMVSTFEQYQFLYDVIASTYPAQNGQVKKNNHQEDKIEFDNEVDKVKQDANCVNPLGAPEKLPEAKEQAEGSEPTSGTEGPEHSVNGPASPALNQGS
As to the kind of experiment: Inhibition of CD45 (unknown origin) using DiFMUP as substrate at 100 uM incubated for 30 mins followed by substrate addition at pH 6.5 by standard phosphatase assay based fluorescence analysis.

In assay [5] the target is Receptor-type tyrosine-protein phosphatase F (Homo sapiens) (UniProt P10586). As to the kind of experiment: Inhibition of LAR (unknown origin) using DiFMUP as substrate at 100 uM incubated for 30 mins followed by substrate addition at pH 6.5 by standard phosphatase assay based fluorescence analysis.
Assay [6] deals with T5, Tyrosine-protein phosphatase non-receptor type 7 (Homo sapiens) (UniProt P35236).
T5 sequence (whole entry): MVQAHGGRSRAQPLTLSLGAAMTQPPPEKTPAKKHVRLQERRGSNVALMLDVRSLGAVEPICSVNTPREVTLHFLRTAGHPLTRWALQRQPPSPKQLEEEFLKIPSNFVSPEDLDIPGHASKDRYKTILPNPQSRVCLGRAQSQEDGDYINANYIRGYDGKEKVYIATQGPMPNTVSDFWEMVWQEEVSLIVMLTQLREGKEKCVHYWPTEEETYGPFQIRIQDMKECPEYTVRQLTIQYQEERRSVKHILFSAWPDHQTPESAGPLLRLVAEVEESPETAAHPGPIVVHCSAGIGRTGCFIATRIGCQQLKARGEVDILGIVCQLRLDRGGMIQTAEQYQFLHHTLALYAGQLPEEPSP
As to the kind of experiment: Inhibition of HePTP (unknown origin) using DiFMUP as substrate at 100 uM incubated for 30 mins followed by substrate addition at pH 6.5 by standard phosphatase assay based fluorescence analysis.

Assay [7] has as its target T6, Dual specificity protein phosphatase 3 (Homo sapiens, UniProt P51452). As to the kind of experiment: Inhibition of VHR (unknown origin) using DiFMUP as substrate at 100 uM incubated for 30 mins followed by substrate addition at pH 6.5 by standard phosphatase assay based fluorescence analysis.
Target sequence in this assay (P51452 whole entry, looked up): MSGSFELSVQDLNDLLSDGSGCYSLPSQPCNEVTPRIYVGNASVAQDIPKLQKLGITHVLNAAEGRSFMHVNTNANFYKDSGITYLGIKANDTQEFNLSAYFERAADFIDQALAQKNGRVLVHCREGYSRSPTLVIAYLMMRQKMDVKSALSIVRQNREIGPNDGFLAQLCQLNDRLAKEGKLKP
For assay [8], the target named is T7, Tyrosine-protein phosphatase non-receptor type 2 (Homo sapiens) (UniProt P17706).
T7 sequence (whole entry): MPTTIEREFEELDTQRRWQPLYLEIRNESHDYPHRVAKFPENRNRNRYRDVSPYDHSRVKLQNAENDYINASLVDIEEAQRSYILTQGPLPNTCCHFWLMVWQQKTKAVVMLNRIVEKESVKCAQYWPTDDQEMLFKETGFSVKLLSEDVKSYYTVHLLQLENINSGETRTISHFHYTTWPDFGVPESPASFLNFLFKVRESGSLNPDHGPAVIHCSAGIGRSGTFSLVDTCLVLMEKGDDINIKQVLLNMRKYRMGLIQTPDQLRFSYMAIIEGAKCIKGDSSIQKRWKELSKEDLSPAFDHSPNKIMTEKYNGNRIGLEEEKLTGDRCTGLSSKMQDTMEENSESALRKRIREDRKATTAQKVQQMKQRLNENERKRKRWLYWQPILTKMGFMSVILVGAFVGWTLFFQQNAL
As to the kind of experiment: Inhibition of TCPTP (unknown origin) using DiFMUP as substrate at 100 uM incubated for 30 mins followed by substrate addition at pH 6.5 by standard phosphatase assay based fluorescence analysis.

Assay [9] addresses Low molecular weight phosphotyrosine protein phosphatase (Homo sapiens) (UniProt P24666). As to the kind of experiment: Inhibition of LMWPTP (unknown origin) using DiFMUP as substrate at 100 uM incubated for 30 mins followed by substrate addition at pH 6.5 by standard phosphatase assay based fluorescence analysis.
Assay [10] deals with Receptor-type tyrosine-protein phosphatase F (Homo sapiens) (UniProt P10586). The assay can be described thus: Time-dependent inhibition of LAR (unknown origin) using DiFMUP as substrate at 1 uM incubated for 15 to 120 mins followed by substrate addition at pH 6.5 by standard phosphatase assay based fluorescence analysis. The settings on record: TDE = time-dependent effect.

Assay [11] shares this target. The assay can be described thus: Inhibition of LAR (unknown origin) assessed as time required for half of the protein to be covalently modified using DiFMUP as substrate incubated for 15 to 120 mins followed by substrate addition at pH 6.5 by standard phosphatase assay based fluorescence analysis.
Assay [12] concerns the target T4, Receptor-type tyrosine-protein phosphatase C (Homo sapiens). As to the kind of experiment: Time dependent inhibition of CD45 (unknown origin) using DiFMUP as substrate at 10 uM incubated for 5 to 120 mins followed by substrate addition at pH 6.5 by standard phosphatase assay based fluorescence analysis. The note with it: TDE = time-dependent effect.
Assay [13] deals with T8, Tyrosine-protein phosphatase non-receptor type 11 (Homo sapiens, UniProt Q06124).
T8 sequence (Q06124 whole entry): T1 sequence (whole entry)
As to the kind of experiment: Inhibition of SHP2 (unknown origin) using DiFMUP as substrate incubated for 30 mins followed by substrate addition at pH 6.5 by standard phosphatase assay based fluorescence analysis.

The target of assay [14] is T2, Receptor-type tyrosine-protein phosphatase epsilon. As to the kind of experiment: Inhibition of PTPep (unknown origin) using DiFMUP as substrate incubated for 30 mins followed by substrate addition at pH 6.5 by standard phosphatase assay based fluorescence analysis.
Assay [15] concerns the target T3, Receptor-type tyrosine-protein phosphatase mu. As to the kind of experiment: Inhibition of PTPmu (unknown origin) using DiFMUP as substrate incubated for 30 mins followed by substrate addition at pH 6.5 by standard phosphatase assay based fluorescence analysis.
For assay [16], the target named is T9, Tyrosine-protein phosphatase non-receptor type 7 (Homo sapiens, UniProt P35236).
T9 sequence (P35236 whole entry): T5 sequence (whole entry)
The assay can be described thus: Inhibition of HePTP (unknown origin) using DiFMUP as substrate incubated for 30 mins followed by substrate addition at pH 6.5 by standard phosphatase assay based fluorescence analysis.

Assay [17] concerns the target T6, Dual specificity protein phosphatase 3. As to the kind of experiment: Inhibition of VHR (unknown origin) using DiFMUP as substrate incubated for 30 mins followed by substrate addition at pH 6.5 by standard phosphatase assay based fluorescence analysis.
Target sequence in this assay (P51452 whole entry): as the sequence (P51452 whole entry, looked up) above
In assay [18] the target is T3, Receptor-type tyrosine-protein phosphatase mu. As to the kind of experiment: Time-dependent inhibition of PTPmu (unknown origin) using DiFMUP as substrate at 10 uM incubated for 5 to 120 mins followed by substrate addition at pH 6.5 by standard phosphatase assay based fluorescence analysis. The settings on record: TDE = time-dependent effect.
For assay [19], the target named is T10, Tyrosine-protein phosphatase non-receptor type 2 (Homo sapiens, UniProt P17706).
T10 sequence (P17706 whole entry): T7 sequence (whole entry)
As to the kind of experiment: Inhibition of TCPTP (unknown origin) using DiFMUP as substrate incubated for 30 mins followed by substrate addition at pH 6.5 by standard phosphatase assay based fluorescence analysis.

The target in assay [20] is T11, Receptor-type tyrosine-protein phosphatase C (Homo sapiens, UniProt P08575).
T11 sequence (P08575 whole entry): T4 sequence (whole entry)
The assay can be described thus: Inhibition of CD45 (unknown origin) using DiFMUP as substrate incubated for 30 mins followed by substrate addition at pH 6.5 by standard phosphatase assay based fluorescence analysis.

Assay [21] concerns the target Receptor-type tyrosine-protein phosphatase F (Homo sapiens) (UniProt P10586). The assay can be described thus: Inhibition of LAR (unknown origin) using DiFMUP as substrate incubated for 30 mins followed by substrate addition at pH 6.5 by standard phosphatase assay based fluorescence analysis.
The target is the same in assay [22]. The assay can be described thus: Time-dependent inhibition of LAR (unknown origin) using DiFMUP as substrate at 50 uM incubated for 15 to 120 mins followed by substrate addition at pH 6.5 by standard phosphatase assay based fluorescence analysis. The settings on record: TDE = time-dependent effect.

Activity calls are given as the source filed them. The rule behind the calls is not given here. Where only a bound is given, the exact number is not on record here.

Sequence of Low molecular weight phosphotyrosine protein phosphatase (Homo sapiens) (P24666 whole entry, looked up): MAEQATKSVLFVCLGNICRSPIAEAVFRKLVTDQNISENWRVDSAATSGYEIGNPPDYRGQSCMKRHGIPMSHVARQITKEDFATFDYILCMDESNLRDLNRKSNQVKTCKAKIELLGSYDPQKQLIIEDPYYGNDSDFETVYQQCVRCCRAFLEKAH
Sequence of Receptor-type tyrosine-protein phosphatase F (Homo sapiens) (P10586 whole entry): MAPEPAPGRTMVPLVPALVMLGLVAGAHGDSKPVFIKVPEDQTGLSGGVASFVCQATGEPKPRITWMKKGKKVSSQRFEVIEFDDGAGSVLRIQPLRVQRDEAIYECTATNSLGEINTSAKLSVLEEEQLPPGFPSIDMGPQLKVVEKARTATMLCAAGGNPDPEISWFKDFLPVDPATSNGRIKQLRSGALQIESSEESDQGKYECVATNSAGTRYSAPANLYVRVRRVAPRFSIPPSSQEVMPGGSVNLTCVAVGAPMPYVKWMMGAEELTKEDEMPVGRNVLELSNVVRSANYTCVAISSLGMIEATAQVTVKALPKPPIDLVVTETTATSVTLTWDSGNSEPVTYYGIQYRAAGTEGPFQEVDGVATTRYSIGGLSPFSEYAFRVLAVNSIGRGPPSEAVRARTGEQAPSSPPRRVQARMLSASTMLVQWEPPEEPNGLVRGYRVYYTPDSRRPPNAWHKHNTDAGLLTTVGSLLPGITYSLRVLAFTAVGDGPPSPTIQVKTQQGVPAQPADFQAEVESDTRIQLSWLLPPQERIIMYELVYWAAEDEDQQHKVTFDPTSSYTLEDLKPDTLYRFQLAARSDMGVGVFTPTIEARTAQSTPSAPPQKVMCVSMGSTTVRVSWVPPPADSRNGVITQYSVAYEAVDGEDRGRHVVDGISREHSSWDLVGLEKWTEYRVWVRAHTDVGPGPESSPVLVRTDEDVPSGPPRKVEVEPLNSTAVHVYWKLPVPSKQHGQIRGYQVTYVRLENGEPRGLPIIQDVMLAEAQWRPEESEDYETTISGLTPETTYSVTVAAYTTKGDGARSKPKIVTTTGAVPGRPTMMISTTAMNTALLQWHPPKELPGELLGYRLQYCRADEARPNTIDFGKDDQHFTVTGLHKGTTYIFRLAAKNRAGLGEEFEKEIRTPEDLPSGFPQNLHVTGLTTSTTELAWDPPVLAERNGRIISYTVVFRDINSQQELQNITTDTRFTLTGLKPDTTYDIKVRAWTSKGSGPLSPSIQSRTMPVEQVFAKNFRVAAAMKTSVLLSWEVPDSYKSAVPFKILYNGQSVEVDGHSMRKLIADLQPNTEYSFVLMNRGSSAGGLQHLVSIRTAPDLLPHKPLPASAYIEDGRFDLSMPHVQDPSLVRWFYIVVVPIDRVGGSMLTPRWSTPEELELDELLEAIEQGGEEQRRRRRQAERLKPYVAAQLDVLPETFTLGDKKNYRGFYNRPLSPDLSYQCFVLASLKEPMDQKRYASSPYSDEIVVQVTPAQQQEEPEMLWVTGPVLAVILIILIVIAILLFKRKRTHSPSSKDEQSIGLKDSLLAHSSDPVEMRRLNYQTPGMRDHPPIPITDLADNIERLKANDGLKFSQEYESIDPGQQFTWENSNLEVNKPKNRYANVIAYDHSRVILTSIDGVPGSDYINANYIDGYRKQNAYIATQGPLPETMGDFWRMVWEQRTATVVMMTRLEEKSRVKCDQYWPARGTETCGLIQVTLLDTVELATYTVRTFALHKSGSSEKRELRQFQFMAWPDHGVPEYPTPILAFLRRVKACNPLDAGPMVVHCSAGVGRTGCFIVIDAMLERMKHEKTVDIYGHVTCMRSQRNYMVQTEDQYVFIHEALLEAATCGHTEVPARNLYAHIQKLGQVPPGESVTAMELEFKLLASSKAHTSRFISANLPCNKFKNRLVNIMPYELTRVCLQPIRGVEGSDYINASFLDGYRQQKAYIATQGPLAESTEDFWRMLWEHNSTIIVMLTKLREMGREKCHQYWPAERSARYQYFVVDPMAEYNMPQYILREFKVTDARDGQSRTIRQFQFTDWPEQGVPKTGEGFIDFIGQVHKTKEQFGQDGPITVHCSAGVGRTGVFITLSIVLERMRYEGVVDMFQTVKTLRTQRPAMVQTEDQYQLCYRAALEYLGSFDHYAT
T2 sequence (P23469 whole entry): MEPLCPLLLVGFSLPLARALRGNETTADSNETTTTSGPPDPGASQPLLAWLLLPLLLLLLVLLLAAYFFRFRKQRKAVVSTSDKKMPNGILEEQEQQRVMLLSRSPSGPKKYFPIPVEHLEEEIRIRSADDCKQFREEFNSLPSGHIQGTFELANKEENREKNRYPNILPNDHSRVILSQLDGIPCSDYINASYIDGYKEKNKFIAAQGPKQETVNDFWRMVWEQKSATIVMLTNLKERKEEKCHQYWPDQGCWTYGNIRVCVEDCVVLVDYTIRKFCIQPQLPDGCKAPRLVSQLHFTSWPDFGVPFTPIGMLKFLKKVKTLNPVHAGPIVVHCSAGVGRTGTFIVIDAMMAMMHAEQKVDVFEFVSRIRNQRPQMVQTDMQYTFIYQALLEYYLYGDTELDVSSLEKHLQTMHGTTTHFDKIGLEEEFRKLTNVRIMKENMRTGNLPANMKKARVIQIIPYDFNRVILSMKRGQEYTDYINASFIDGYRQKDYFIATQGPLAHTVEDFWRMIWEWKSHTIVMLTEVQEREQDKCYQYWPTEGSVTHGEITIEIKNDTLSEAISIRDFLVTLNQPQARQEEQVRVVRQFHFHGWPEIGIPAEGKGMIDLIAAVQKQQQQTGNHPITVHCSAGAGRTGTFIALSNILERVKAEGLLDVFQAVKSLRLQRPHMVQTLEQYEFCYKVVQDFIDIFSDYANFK
T3 sequence (P28827 whole entry): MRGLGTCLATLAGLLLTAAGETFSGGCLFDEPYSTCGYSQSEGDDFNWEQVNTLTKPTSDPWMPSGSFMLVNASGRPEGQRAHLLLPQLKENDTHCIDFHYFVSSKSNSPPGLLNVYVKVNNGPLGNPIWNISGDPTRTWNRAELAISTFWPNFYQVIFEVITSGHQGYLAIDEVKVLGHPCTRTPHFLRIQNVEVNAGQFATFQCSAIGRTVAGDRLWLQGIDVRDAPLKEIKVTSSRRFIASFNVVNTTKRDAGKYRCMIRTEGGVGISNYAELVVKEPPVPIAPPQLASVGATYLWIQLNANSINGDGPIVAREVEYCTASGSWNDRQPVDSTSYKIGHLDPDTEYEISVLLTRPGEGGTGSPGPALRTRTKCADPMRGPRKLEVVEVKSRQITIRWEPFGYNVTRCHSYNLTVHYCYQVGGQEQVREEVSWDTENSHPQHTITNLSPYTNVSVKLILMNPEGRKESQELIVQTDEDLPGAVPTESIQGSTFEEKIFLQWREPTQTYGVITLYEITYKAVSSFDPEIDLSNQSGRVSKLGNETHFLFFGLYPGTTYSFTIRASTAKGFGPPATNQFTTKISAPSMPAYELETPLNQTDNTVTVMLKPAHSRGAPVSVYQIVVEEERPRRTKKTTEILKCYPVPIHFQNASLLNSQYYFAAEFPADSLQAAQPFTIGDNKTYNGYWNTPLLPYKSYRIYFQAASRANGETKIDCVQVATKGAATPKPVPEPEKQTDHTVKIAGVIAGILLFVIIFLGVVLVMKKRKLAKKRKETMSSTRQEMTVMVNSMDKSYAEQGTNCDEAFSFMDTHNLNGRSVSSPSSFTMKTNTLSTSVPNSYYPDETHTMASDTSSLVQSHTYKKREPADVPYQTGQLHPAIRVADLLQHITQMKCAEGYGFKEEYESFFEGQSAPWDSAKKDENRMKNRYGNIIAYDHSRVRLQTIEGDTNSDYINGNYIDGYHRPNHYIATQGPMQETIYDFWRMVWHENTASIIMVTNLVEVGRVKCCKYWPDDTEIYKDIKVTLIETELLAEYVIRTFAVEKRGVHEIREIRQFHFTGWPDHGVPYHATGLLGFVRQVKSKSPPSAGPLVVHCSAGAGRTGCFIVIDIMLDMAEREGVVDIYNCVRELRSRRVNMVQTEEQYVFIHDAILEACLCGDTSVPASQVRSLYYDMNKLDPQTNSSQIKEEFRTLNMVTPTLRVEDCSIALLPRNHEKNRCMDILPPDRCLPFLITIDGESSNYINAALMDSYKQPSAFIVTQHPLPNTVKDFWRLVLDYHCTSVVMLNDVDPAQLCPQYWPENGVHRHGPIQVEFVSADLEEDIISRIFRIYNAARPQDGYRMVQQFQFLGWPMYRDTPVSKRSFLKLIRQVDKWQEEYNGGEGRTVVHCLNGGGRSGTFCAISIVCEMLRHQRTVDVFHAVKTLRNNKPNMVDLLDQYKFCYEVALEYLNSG

As for `COc1ccc2c(c1C=O)CC(O)OC2=O` (configuration not stated), the inhibition result in [1], in [2], in assay [3], in [4], in [5] and in [6] was “inactive” throughout. Moreover, the inhibition entry in assay [7], in assay [8] and in assay [9] was “inactive” each time.

As for `CC1(C)Cc2c(O)c(C=O)c3c(c2C1)C(=O)OC(O)C3` (configuration not stated) [ILLUDALIC ACID], the inhibition result was “Tde” in assay [10], “Tde” in assay [12], “Tde” in assay [18] and “Dose-dependent effect” in assay [21]. For the same molecule, the inhibition entry in assay [1], in assay [3], in [4] and in assay [5] was “Active” in each case. For the same molecule, in assay [11], the T1/2 worked out at 30 s. For the same molecule, the inhibition result in [2], in [6], in [7], in [8] and in assay [9] was “inactive” throughout. Moreover, the half-maximal inhibitory concentration (IC50) in assay [13] is 29 µM; in assay [14], greater than 100 µM; in assay [15] it was 16 µM; in [16], greater than 100 µM; in assay [17], greater than 100 µM; in assay [19], greater than 100 µM. The molecule further returned a half-maximal inhibitory concentration (IC50) in assay [20] of 10 µM.

`COc1c(C=O)c2c(c3c1CC(C)(C)C3)C(=O)OC(O)C2` (configuration not stated): the inhibition result in assay [1], in assay [2], in [3], in assay [4], in assay [6] and in assay [7] was “inactive” throughout. Besides, the inhibition result in assay [8] and in assay [9] was “inactive” each time. Further, the IC50 in [13], in [14], in assay [15], in assay [16], in [17] and in [19] was greater than 100 µM each time. The same molecule showed a half-inhibitory concentration (IC50) in assay [20] greater than 100 µM. For the same molecule, the inhibition result in assay [5] is “Active”. In addition, the inhibition result in assay [22] is “Tde”.

One may read the IC50 as the point on the concentration scale where inhibition reaches its midpoint.

The record behind these values is ChEMBL document CHEMBL4414670 (J Nat Prod, 2019).
